Results: ChEMBL document CHEMBL3997836, “Leupeptazin, a highly modified tripeptide isolated from cultures of a Streptomyces sp. inhibits cathepsin K” (Bioorg Med Chem Lett, 2017)

Biological target: T1, Cathepsin K (Homo sapiens, UniProt P43235)
T1 sequence (P43235 whole entry): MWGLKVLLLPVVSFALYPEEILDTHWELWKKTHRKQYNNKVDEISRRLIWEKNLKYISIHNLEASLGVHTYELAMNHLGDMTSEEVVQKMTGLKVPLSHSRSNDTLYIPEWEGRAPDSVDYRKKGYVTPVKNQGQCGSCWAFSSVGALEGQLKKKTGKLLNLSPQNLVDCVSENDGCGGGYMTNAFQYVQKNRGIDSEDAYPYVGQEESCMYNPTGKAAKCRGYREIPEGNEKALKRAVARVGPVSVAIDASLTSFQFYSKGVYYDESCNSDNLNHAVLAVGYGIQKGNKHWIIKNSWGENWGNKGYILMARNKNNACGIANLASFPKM
Experiment: Competitive inhibition of recombinant human cathepsin K expressed in Pichia pastoris using Z-FR-MCA as substrate by Dixon plot method

Structure (SMILES) | Ki [µM]
CC(=O)N[C@@H](CC(C)C)C(=O)N[C@@H](CC(C)C)C(=O)N[C@H]1CCCN2C(N)=NC(=N)N[C@@H]12 | 44
CC(=O)N[C@@H](CC(C)C)C(=O)N[C@@H](CC(C)C)C(=O)N[C@H](C=O)CCCNC(=N)N [LEUPEPTIN] | 0.024
